# Test results taken from US12290520B2, “Methods of use of emulsion formulations of aprepitant” (Heron Therapeutics, Inc., priority 2014, dated 2025).
# Assay: Pharmacokinetics of aprepitant emulsion vs fosaprepitant solution, intravenous
# Assay type: in vivo, male Sprague-Dawley rats
# Settings: rat, equivalent to 14 mg/kg aprepitant
# Protocol: The pharmacokinetics of an aprepitant emulsion prepared according to Example 1 was determined. Two groups of six male Sprague-Dawley rats each were injected intravenously with, respectively, fosaprepitant in solution or aprepitant emulsion prepared according to Example 1. All drugs were administered at an effective concentration equivalent to 14 mg/kg aprepitant. Blood from all rats was collected at the appropriate time intervals and processed to plasma by centrifugation. Plasma samples were analyzed by LC-MS/MS for aprepitant and fosaprepitant, as appropriate. A plasma concentration versus time curve of aprepitant for the emulsion described in Example 1 and for fosaprepitant is presented in FIG. 2 (fosaprepitant in solution, ●; aprepitant emulsion, ▴). The curves indicate the initial aprepitant level reached immediately after injection of the aprepitant emulsion was almost 3 times higher than the initial aprepitant level reached immediately after injection of the fosaprepitant solution.
smiles,measurement,value
C[C@@H](O[C@H]1OCCN(Cc2nc(O)n(P(=O)(O)O)n2)[C@H]1c1ccc(F)cc1)c1cc(C(F)(F)F)cc(C(F)(F)F)c1 [fosaprepitant],"Plasma levels of aprepitant by the 3-hour time point, emulsion vs fosaprepitant solution",essentially the same
